Experimental data: article doi:10.1101/2020.03.05.979567v1 (biorxiv, 2020)

What was measured:
[1] = biological target: T1, recombinant mouse Nape-pld (Mus musculus, UniProt Q8BH82); assay: PED-A1 hydrolysis, fluorescence, initial rate; format: biochemical
T1 sequence (Q8BH82 1-396): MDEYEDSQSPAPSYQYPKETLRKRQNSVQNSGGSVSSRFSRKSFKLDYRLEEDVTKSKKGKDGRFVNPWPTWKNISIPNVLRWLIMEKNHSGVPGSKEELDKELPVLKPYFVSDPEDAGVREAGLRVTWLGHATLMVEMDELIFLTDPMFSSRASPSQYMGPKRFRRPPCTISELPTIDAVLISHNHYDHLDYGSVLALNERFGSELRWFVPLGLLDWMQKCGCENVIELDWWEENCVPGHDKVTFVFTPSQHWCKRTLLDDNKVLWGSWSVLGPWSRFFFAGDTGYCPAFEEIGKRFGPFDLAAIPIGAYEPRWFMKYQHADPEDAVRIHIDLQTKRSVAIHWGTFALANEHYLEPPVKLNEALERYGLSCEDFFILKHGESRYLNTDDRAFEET

[2] = biological target: T2, Streptomyces chromofuscus phospholipase D (ScPld) (Streptomyces chromofuscus, UniProt Q8KRU5); assay: PED-A1 hydrolysis, fluorescence; format: biochemical
T2 sequence (Q8KRU5 47-556): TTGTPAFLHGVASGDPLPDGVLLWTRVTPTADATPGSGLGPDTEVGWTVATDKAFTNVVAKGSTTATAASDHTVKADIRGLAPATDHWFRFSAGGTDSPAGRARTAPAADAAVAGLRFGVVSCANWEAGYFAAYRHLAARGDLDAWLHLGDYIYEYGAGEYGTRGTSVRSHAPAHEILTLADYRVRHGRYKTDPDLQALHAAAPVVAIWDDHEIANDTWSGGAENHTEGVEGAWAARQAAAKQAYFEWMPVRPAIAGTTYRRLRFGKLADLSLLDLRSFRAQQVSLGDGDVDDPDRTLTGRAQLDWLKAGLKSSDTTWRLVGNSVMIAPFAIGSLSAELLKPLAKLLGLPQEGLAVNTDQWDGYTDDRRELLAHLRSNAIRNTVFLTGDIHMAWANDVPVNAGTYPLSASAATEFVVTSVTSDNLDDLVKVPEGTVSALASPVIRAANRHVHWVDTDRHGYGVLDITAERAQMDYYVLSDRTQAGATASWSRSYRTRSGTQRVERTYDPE

[3] = biological target: T1, recombinant mouse Nape-pld; assay: PED-A1 hydrolysis kinetics, fluorescence; format: biochemical
[4] = biological target: NAPE-PLD (endogenous, HEK293 cells) (Homo sapiens, UniProt Q6IQ20); assay: PED-A1 hydrolysis in intact HEK293 cells, fluorescence; format: cell-based; conditions: 30 min preincubation, 3.5 μM PED-A1
[5] = biological target: T1, recombinant mouse Nape-pld; assay: biochemical
[6] = biological target: T1, recombinant mouse Nape-pld; assay: biochemical; remark: listed apart in the source
[7] = biological target: T1, recombinant mouse Nape-pld; assay: biochemical; remark: listed apart in the source

NAPE-PLD (endogenous, HEK293 cells), sequence (Q6IQ20 whole entry): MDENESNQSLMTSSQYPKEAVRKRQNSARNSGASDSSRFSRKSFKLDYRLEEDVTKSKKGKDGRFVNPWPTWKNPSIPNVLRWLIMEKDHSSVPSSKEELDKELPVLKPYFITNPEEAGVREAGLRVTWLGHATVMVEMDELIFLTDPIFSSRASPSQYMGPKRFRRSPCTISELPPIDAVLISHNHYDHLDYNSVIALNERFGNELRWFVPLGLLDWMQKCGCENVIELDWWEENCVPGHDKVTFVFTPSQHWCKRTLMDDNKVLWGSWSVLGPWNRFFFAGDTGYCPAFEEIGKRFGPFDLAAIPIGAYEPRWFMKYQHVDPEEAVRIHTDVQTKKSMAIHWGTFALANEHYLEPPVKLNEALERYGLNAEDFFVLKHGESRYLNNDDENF

Compound	IC50 [1] [µM]	IC50 [5] [µM]	other results
Oc1cc(Cl)ccc1Oc1ccc(Cl)cc1Cl [Inh 25, triclosan]	62.9		
Oc1c(Cl)cc(Cl)c(Cl)c1Cc1c(O)c(Cl)cc(Cl)c1Cl [Inh 1, hexachlorophene]	~2	1.6	IC50 [2]: 149 µM; Ki [3]: ~2 µM; IC50 [4]: 9.8 µM
[H]/N=C(\N/C(=N/[H])NCCCCCCNC(=N)NC(=N)Nc1ccc(Cl)cc1)Nc1ccc(Cl)cc1 [Inh 10, Chlorhexidine]		10.4	
Oc1c(Cl)cc(Cl)cc1C(c1cc(Cl)cc(Cl)c1O)C(Cl)(Cl)Cl [Inh 23, CAS 92167-59-4]	2.8		
Oc1c(Br)cc(Cl)cc1Cc1cc(Cl)cc(Br)c1O [Inh 22, CAS 15435-29-7]	5		
Clc1cc(Cl)c(Cl)c(Cc2cc(Cl)cc(Cl)c2Cl)c1 [Inh 15, CAS 2888-15-5]			IC50 [6]: > 200 µM
COc1ccc(Cl)cc1Cc1cc(Cl)ccc1OC [Inh 19, CAS 7569-57-5]			IC50 [6]: > 200 µM
COc1c(O)cc2oc3cc(O)c(CC=C(C)C)c(O)c3c(=O)c2c1CC=C(C)C [Inh 3, Mangostin]		2.8	
Oc1c(Cl)cc(Cl)cc1Cc1cc(Cl)cc(Cl)c1O [Inh 21, CAS 1940-43-8]	26.5		
COc1ccc(C(=O)c2ccccc2O)c(O)c1 [Inh 14, dioxybenzone]		19.1	
CCCCC(=O)O[C@H]1CC[C@H]2[C@@H]3CCc4cc(O)ccc4[C@H]3CC[C@]12C [Inh 7, estradiol valerate]	7.8		
O=C(Nc1ccc(Cl)cc1)Nc1ccc(Cl)c(Cl)c1 [Inh 26, triclocarban]			IC50 [7]: > 200 µM
Oc1ccc(Cl)cc1Sc1cc(Cl)ccc1O [Inh 18, Fenticlor]	26.8		
CC(C)(c1cc(Cl)c(O)c(Cl)c1)c1cc(Cl)c(O)c(Cl)c1 [Inh 24, CAS 79-95-8]	64.7		
Oc1ccc(Cl)cc1Cc1cc(Cl)ccc1O [Inh 17, Dichlorophen]	23.2		
O=c1c2ccccc2[se]n1-c1ccccc1 [Inh 4, ebselen]		2.8	
CC(C)=CCC[C@]1(C)C=Cc2c(O)c3c(c(CC=C(C)C)c2O1)O[C@]12C(=C[C@@H]4C[C@H]1C(C)(C)O[C@@]2(C/C=C(/C)C(=O)O)C4=O)C3=O [Inh 9, Gambogic acid]		9.9	
Oc1c(Cl)cc(Cl)cc1Sc1cc(Cl)cc(Cl)c1O [Inh 2, bithionol]		2.1	IC50 [2]: > 200 µM; IC50 [4]: 10.7 µM
CC1=C(O)C(=O)C=C2C1=CC=C1[C@@]2(C)CC[C@@]2(C)[C@@H]3C[C@](C)(C(=O)O)CC[C@]3(C)CC[C@]12C [Inh 5, Tripterine]		3	
Cc1cc2c(C(C)C)c(O)c(O)c(C=O)c2c(O)c1-c1c(C)cc2c(C(C)C)c(O)c(O)c(C=O)c2c1O [Inh 6, Gossypol]		6.9	
